Measurements reported in US20090082203A1, “INSECTICIDAL BIS(SUBSTITUTED PHENYL)-1-{[4-(SATURATED HETEROCYCLYL-SUBSTITUTED)PHENYLMETHYL]- (4-PIPERIDYL)}METHANE DERIVATIVES” (priority 2004, published 2009).

Tested on: tobacco budworm (Heliothis virescens [Fabricius])
Experiment: surface-treated diet test against tobacco budworm
Format: in vivo
Details: 0.25 millimolar on the surface of the diet, second instar larvae, five-day exposure; for Percent Mortality: compared to the total number of insects infested; for Percent Growth Inhibition: inhibition of insect weight relative to untreated controls
Procedure: Candidate insecticides were evaluated for activity against the tobacco budworm (Heliothis virescens [Fabricius]) in a surface-treated diet test.
In this test one mL of molten (65-70° C.) wheat germ-based artificial diet was pipetted into each well of a four by six (24 well) multi-well plate (ID# 430345-15.5 mm dia.×17.6 mm deep; Corning Costar Corp., One Alewife Center, Cambridge, Mass. 02140). The diet was allowed to cool to ambient temperature before treatment with candidate insecticide.
For a determination of insecticidal activity, solutions of the candidate insecticides were prepared for testing using a Packard 204DT Multiprobe® Robotic System (Packard Instrument Company, 800 Research Parkway, Meriden, Conn. 06450), in which the robot first diluted a standard 50 millimolar DMSO solution of candidate insecticide with a 1:1 water/acetone solution (V/V) in a ratio of 1:7 stock solution to water/acetone. The robot subsequently pipetted 40 microliters of the so-prepared solution onto the surface of the diet in each of three wells in the 24 multi-well plate. The process was repeated with solutions of seven other candidate insecticides. Once treated, the contents of the multi-well plate were allowed to dry, leaving 0.25 millimoles of candidate insecticide on the surface of the diet, or a concentration of 0.25 millimolar. Appropriate untreated controls containing only DMSO on the diet surface were also included in this test.
For evaluations of the insecticidal activity of a candidate insecticide at varying rates of application, the test was established as described above using sub-multiples of the standard 50 millimolar DMSO solution of candidate insecticide. For example, the standard 50 millimolar solution was diluted by the robot with DMSO to give 5, 0.5, 0.05, 0.005, 0.0005 millimolar, or more dilute solutions of the candidate insecticide. In these evaluations there were six replicates of each rate of application placed on the surface of the diet in the 24 multi-well plate, for a total of four rates of application of candidate insecticide in each plate.
In each well of the test plate was placed one second instar tobacco budworm larvae, each weighing approximately five milligrams. After the larvae were placed in each well, the plate was sealed with clear polyfilm adhesive tape. The tape over each well was perforated to ensure an adequate air supply. The plates were then held in a growth chamber at 25° C. and 60% relative humidity for five days (light 14 hours/day).
After the five-day exposure period insecticidal activity for each rate of application of candidate insecticide was assessed as percent inhibition of insect weight relative to the weight of insects from untreated controls, and percent mortality when compared to the total number of insects infested.
The test compounds of formula I are identified by numbers that correspond to those in Table 1.

Row | SMILES | Percent Mortality [%] | Percent Growth Inhibition [%]
1 | OC(c1ccc(OC(F)(F)F)cc1)(c1ccc(OC(F)(F)F)cc1)C1CCN(Cc2ccc(C3(c4ccc(Cl)nc4)OCCO3)cc2)CC1 [Compound 83] | 0 | 31
2 | OC(c1ccc(OC(F)(F)F)cc1)(c1ccc(OC(F)(F)F)cc1)C1CCN(Cc2ccc(C3(c4cccc(Cl)c4)OCCO3)cc2)CC1 [Compound 85] | 100 | 100
3 | C=CC1COC(c2ccc(C[N+]3([O-])CCC(C(O)(c4ccc(OC(F)(F)F)cc4)c4ccc(OC(F)(F)F)cc4)CC3)cc2)O1 (stereo not drawn) [Compound 86] | 100 | 100
4 | [O-][N+]1(Cc2ccc(C3(c4ccc(Cl)nc4)OCCO3)cc2)CCC(C(O)(c2ccc(OC(F)(F)F)cc2)c2ccc(OC(F)(F)F)cc2)CC1 (stereo not drawn) [Compound 87] | 17 | 79
5 | COC(=O)N1CCSC1c1ccc(CN2CCC(C(O)(c3ccc(OC(F)(F)F)cc3)c3ccc(OC(F)(F)F)cc3)CC2)cc1 (stereo not drawn) [Compound 89] | 100 | 100
6 | CN1CCOC1c1ccc(CN2CCC(C(O)(c3ccc(OC(F)(F)F)cc3)c3ccc(OC(F)(F)F)cc3)CC2)cc1 (stereo not drawn) [Compound 90] | 100 | 100
7 | C=CCOCC1COC(c2ccc(CN3CCC(C(O)(c4ccc(OC(F)(F)F)cc4)c4ccc(OC(F)(F)F)cc4)CC3)cc2)O1 (stereo not drawn) [Compound 91] | 100 | 100
8 | OC(c1ccc(OC(F)(F)F)cc1)(c1ccc(OC(F)(F)F)cc1)C1CCN(Cc2ccc(C3OCC(COc4ccccc4)O3)cc2)CC1 (stereo not drawn) [Compound 92] | 100 | 100
9 | C=CCOCC1COC(c2ccc(C[N+]3([O-])CCC(C(O)(c4ccc(OC(F)(F)F)cc4)c4ccc(OC(F)(F)F)cc4)CC3)cc2)O1 (stereo not drawn) [Compound 93] | 100 | 100
10 | [O-][N+]1(Cc2ccc(C3OCC(COc4ccccc4)O3)cc2)CCC(C(O)(c2ccc(OC(F)(F)F)cc2)c2ccc(OC(F)(F)F)cc2)CC1 (stereo not drawn) [Compound 94] | 100 | 100
11 | O=C(NCC1COC(c2ccc(CN3CCC(C(O)(c4ccc(OC(F)(F)F)cc4)c4ccc(OC(F)(F)F)cc4)CC3)cc2)O1)OCc1ccccc1 (stereo not drawn) [Compound 95] | 100 | 100
12 | CC(C)N1CCOC1c1ccc(CN2CCC(C(O)(c3ccc(OC(F)(F)F)cc3)c3ccc(OC(F)(F)F)cc3)CC2)cc1 (stereo not drawn) [Compound 97] | 50 | 100
13 | CCCCN1CCOC1c1ccc(CN2CCC(C(O)(c3ccc(OC(F)(F)F)cc3)c3ccc(OC(F)(F)F)cc3)CC2)cc1 (stereo not drawn) [Compound 98] | 100 | 100
14 | OC(c1ccc(OC(F)(F)F)cc1)(c1ccc(OC(F)(F)F)cc1)C1CCN(Cc2ccc(C3(c4ccoc4)OCCO3)cc2)CC1 [Compound 99] | 100 | 100
15 | [O-][N+]1(Cc2ccc(C3(c4ccoc4)OCCO3)cc2)CCC(C(O)(c2ccc(OC(F)(F)F)cc2)c2ccc(OC(F)(F)F)cc2)CC1 (stereo not drawn) [Compound 101] | 100 | 100
16 | OC(c1ccc(OC(F)(F)F)cc1)(c1ccc(OC(F)(F)F)cc1)C1CCN(Cc2ccc(C3COCO3)cc2)CC1 (stereo not drawn) [Compound 103] | 100 | 100
17 | [O-][N+]1(Cc2ccc(C3COCO3)cc2)CCC(C(O)(c2ccc(OC(F)(F)F)cc2)c2ccc(OC(F)(F)F)cc2)CC1 (stereo not drawn) [Compound 104] | 100 | 100
18 | [O-][N+]1(Cc2ccc(C3OCC4OC4CO3)cc2)CCC(C(O)(c2ccc(OC(F)(F)F)cc2)c2ccc(OC(F)(F)F)cc2)CC1 (stereo not drawn) [Compound 105] | 100 | 100
19 | NC1(CO)COC(c2ccc(CN3CCC(C(O)(c4ccc(OC(F)(F)F)cc4)c4ccc(OC(F)(F)F)cc4)CC3)cc2)OC1 (stereo not drawn) [Compound 107] | 100 | 100
20 | OC(c1ccc(OC(F)(F)F)cc1)(c1ccc(OC(F)(F)F)cc1)C1CCN(Cc2ccc(C3OCC(CN4CCCC4)O3)cc2)CC1 (stereo not drawn) [Compound 108] | 33 | 97
21 | [O-][N+]1(Cc2ccc(C3OCC(CN4CCCC4)O3)cc2)CCC(C(O)(c2ccc(OC(F)(F)F)cc2)c2ccc(OC(F)(F)F)cc2)CC1 (stereo not drawn) [Compound 110] | 100 | 100
22 | CC1(C)COC(c2ccc(CN3CCC(C(O)(c4ccc(OC(F)(F)F)cc4)c4ccc(OC(F)(F)F)cc4)CC3)cc2)O1 (stereo not drawn) [Compound 111] | 100 | 100
23 | CC1(C)COC(c2ccc(C[N+]3([O-])CCC(C(O)(c4ccc(OC(F)(F)F)cc4)c4ccc(OC(F)(F)F)cc4)CC3)cc2)O1 (stereo not drawn) [Compound 112] | 100 | 100
24 | OC(c1ccc(OC(F)(F)F)cc1)(c1ccc(OC(F)(F)F)cc1)C1CCN(Cc2ccc(C3O[C@H]4CCCC[C@H]4O3)cc2)CC1 (stereo partly drawn) [Compound 115] | 100 | 100
25 | OC(c1ccc(OC(F)(F)F)cc1)(c1ccc(OC(F)(F)F)cc1)C1CCN(Cc2ccc(C3O[C@H]4COC[C@H]4O3)cc2)CC1 (stereo partly drawn) [Compound 116] | 100 | 100
26 | [O-][N+]1(Cc2ccc(C3O[C@H]4CCCC[C@H]4O3)cc2)CCC(C(O)(c2ccc(OC(F)(F)F)cc2)c2ccc(OC(F)(F)F)cc2)CC1 (stereo partly drawn) [Compound 117] | 100 | 100
27 | [O-][N+]1(Cc2ccc(C3O[C@H]4COC[C@H]4O3)cc2)CCC(C(O)(c2ccc(OC(F)(F)F)cc2)c2ccc(OC(F)(F)F)cc2)CC1 (stereo partly drawn) [Compound 118] | 100 | 100
28 | OC(c1ccc(OC(F)(F)F)cc1)(c1ccc(OC(F)(F)F)cc1)C1CCN(Cc2ccc(C3O[C@H]4CCC[C@H]4O3)cc2)CC1 (stereo partly drawn) [Compound 119] | 100 | 100
29 | CC1OC(c2ccc(CN3CCC(C(O)(c4ccc(OC(F)(F)F)cc4)c4ccc(OC(F)(F)F)cc4)CC3)cc2)OC1C (stereo not drawn) [Compound 121] | 100 | 100
30 | CC1(C)OC(c2ccc(CN3CCC(C(O)(c4ccc(OC(F)(F)F)cc4)c4ccc(OC(F)(F)F)cc4)CC3)cc2)OC1(C)C [Compound 122] | 100 | 100
